Measured values from patent publication US7659275B2, “Piperidinyl piperazine derivatives useful as inhibitors of chemokine receptors” (priority 2005, dated 2010).

Assays:
[1] = tested on: HIV-1 YU-2 luciferase reporter virus in U87-CD4-CCR5 cells; assay: Luciferase Replication assay (HIV replication); assay type: cell-based; conditions: Human immunodeficiency virus 1, U87/CD4/CCR5, 72 h, read-out: HIV Replication IC50 luciferase (nM, Yu-2)
Description: Luciferase Replication Assay:
Plasmids encoding the full length genome of HIV-1 pNL-4-Luc with the gp 120 V-3 loop replaced by the Bgl II fragment of HIV-1 ADA, YU-2 or HxB (ADA-Luc-FL, YU-2-Luc-FL and HxB-Luc-FL) were obtained from Dr. Susan Pontow (Washington University, St. Louis Mo.). Replication-competent luciferase reporter virus stocks were generated by transfection of plasmids into 293T cells using Superfect (Qiagen) or Mirus transfection reagents. Viral stocks were collected 48 hours following transfection and titered for luciferase production on U-87-CCR5 or CXCR4 cells. U87-CD4-CCR5 cells ([…]) were plated in 96-well cell culture plates and incubated overnight. Media was removed and replaced with 50 μl of fresh culture media (DMEM, 10% FCS) and 50 μl of compound diluted in culture medium. Cells were incubated with compound at 37° C. for 1 hour. The resultant supernatant was removed and replaced with 20 μl of media containing compound and infected with an equal volume of diluted or undiluted virus stock at 37° C. for 3-4 hours. The cells were washed once with DMEM, and 200 μl of media containing compound was added. The cultures were incubated for 3 days, the cells lysed in luciferase lysis buffer (Promega, Madison, Wis.) and transferred to Immulon plates (Dynex Technologies, Chantilly Va.). An equal volume of luciferase substrate (Promega, Madison Wis.) was added to lysates and the plates read immediately in a Wallac Luminometer. Fifty and ninety percent inhibitory concentrations were determined using GraphPad PRISM software.

SMILES | melting point [°C] | IC50 [1] [nM]
Cc1nn(O)c(C)c1C(=O)N1CCC(C)(N2CCN([C@@H](c3cccc(F)c3)C3CCN(S(=O)(=O)C4CC4)CC3)[C@@H](C)C2)CC1 | 214 to 215 | 43
CC[C@@H](c1ccc(C(F)(F)F)cc1)N1CCN(C2(C)CCN(C(=O)c3c(C)nn(O)c3C)CC2)C[C@@H]1C | – | > 100
COC[C@@H](c1ccc(C(F)(F)F)cc1)N1CCN(C2(C)CCN(C(=O)c3c(C)nn(O)c3C)CC2)C[C@@H]1C | – | 8
COC[C@@H](c1ccc(C(F)(F)F)cc1)N1CCN(C2(C)CCN(C(=O)c3c(C)nn(OCc4ccccc4)c3C)CC2)C[C@@H]1C | – | 0.4
